Experimental findings from US12544374B2, “AZA-quinoline compounds and uses thereof” (Novartis AG, priority 2019, dated 2026) are described below.

Test [1] deals with wild type PRC2 (wtPRC2) complex (Homo sapiens (Human), UniProt Q15910). Nature of the test: EZH2 LC-MS assay (LC-Qualified). The class given is biochemical. The note with it: (a) LC-Qualified assay. As for the experimental part: Representative compounds of the invention were serially and separately diluted 3-fold in DMSO to obtain twelve concentrations. […] Solutions (6 μL) of 80 nM wild type PRC2 (wtPRC2) complex and 60 μM SAM in reaction buffer (20 mM Tris, pH 8.0, 0.1% BSA, 0.01% Triton, 0.5 mM DTT) were added to the wells that were then incubated with the test compound for 20 min. A 6 μL solution of 3 μM of the substrate peptide H3K27me1 (histone H3[21-44]-K27me1-biotin) and 6 μM regulatory peptide H3K27me3 (histone H3[21-44]-K27me3) in reaction buffer was added to initiate each reaction. […] The data were fit to a dose response equation using the program Helios to get the IC50 values of the test compound.

For the next test, the target named is EZH2 (Homo sapiens (Human), UniProt Q15910). Nature of the test: ELISA (H3K27 methylation) assay in G401 cell. The class given is cell-based. The note with it: (b) ELISA Qualified assay, 48 h. On the procedure:
Representative compounds of the invention were serially and separately diluted 3-fold in DO to obtain a total of eight or twelve concentrations. Then the compounds were added to G401 cell cultured in 384-well plate at 1:500 dilution to obtain the highest concentration of 20 μM. The cells were further cultured for 48 h before ELISA procedure.
ELISA protocol: Cell lysates were transferred to the wells of a 384-well plate and the final volume was adjusted to 50 μL per well with PBS. The plate was sealed, centrifuged at 2,000 rpm for 2 min and incubated at 4° C. for about 16 h. The plate was washed with TBST buffer (1×TBS (10×TBS: 24.2 g Tris (Sigma, T6066), 80 g NaCl (Sigma, S3014) to 1 L of water and adjust pH to 7.6 with HCl) with 0.1% Tween-20). Blocking buffer (TBST, 5% BSA; 50 μL per well) was added and the plate was incubated for 1 h at rt. The blocking buffer was removed and primary antibody was added (30 μL per well). […] The primary antibody was incubated in the plate at rt for 1 h. The wells were washed with TBST and incubated with secondary antibody for 1 h at rt.
After 1 h of incubation at rt, the wells were washed with TBST. […] The signal was read using a PerkinElmer Envision Reader. The H3K27 methylation readouts were normalized using H3 signal and then percentage inhibition was calculated against the samples treated with DO. The data were fit to a dose response curve using the program Helios to get the IC50 values of the test compound.
In general terms: ELISA stands for enzyme-linked immunosorbent assay.

Sequence of EZH2 (Q15910 whole entry): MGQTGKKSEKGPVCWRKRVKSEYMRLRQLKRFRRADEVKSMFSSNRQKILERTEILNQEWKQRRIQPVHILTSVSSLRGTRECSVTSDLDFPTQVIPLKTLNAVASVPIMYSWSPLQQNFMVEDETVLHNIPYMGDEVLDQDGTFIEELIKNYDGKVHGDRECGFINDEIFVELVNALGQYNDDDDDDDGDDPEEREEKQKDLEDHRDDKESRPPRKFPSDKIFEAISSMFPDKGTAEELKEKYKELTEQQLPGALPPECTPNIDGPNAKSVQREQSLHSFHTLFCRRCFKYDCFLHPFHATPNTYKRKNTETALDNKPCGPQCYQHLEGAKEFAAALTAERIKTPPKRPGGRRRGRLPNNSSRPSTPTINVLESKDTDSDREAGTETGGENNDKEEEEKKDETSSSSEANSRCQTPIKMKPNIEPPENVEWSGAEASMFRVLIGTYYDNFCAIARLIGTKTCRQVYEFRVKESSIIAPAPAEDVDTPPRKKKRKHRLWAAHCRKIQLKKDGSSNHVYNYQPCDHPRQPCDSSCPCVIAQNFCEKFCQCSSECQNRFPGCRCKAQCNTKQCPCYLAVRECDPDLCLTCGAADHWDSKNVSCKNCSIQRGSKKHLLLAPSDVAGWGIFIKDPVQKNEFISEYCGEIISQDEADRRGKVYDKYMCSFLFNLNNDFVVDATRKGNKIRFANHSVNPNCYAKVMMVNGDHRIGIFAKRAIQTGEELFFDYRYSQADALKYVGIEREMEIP
Sequence of EZH2 (Q15022 whole entry partner): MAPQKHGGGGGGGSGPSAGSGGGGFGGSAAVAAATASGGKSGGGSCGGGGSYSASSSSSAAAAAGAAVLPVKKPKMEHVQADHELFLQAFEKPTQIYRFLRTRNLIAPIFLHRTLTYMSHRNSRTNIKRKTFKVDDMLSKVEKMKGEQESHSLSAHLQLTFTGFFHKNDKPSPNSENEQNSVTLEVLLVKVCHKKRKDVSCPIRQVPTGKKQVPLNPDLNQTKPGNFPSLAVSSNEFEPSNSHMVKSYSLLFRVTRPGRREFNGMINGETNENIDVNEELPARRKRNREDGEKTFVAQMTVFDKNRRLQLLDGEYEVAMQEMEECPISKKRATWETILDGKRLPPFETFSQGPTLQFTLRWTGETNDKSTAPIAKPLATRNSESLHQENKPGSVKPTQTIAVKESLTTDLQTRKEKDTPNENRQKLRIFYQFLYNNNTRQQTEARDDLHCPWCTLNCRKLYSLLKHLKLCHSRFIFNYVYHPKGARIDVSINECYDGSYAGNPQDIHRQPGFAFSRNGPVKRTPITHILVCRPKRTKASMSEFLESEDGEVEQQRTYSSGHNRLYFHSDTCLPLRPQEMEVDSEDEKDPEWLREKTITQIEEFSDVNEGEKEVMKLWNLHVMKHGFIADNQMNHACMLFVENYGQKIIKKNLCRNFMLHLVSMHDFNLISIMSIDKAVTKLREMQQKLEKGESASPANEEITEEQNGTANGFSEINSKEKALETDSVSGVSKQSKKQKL
Sequence of EZH2 (O75530 whole entry partner): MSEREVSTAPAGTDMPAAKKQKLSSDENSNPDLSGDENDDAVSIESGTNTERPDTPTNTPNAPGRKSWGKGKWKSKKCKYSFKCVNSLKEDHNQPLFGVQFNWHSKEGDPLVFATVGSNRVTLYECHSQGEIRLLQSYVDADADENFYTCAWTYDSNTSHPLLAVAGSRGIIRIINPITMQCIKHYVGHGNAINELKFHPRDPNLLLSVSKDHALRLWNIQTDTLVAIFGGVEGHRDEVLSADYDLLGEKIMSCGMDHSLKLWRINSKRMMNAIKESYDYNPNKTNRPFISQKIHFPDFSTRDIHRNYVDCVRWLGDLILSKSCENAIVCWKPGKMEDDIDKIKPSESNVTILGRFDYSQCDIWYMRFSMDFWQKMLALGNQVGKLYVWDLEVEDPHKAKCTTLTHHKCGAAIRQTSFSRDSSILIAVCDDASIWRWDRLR
Sequence of EZH2 (Q09028 whole entry partner): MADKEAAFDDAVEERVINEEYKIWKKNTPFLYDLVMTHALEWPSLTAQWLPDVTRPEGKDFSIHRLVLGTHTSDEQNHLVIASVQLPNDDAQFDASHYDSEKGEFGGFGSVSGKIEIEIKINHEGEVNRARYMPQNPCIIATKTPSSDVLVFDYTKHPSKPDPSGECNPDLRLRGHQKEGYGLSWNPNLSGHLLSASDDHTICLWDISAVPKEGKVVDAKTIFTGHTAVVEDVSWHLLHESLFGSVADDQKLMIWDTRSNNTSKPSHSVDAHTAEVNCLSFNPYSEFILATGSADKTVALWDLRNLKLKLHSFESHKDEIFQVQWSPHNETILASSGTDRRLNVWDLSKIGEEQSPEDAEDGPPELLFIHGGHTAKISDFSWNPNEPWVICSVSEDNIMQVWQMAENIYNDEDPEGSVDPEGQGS
Sequence of wild type PRC2 (wtPRC2) complex (Q15910 whole entry): as the sequence (Q15910 whole entry) above
Sequence of wild type PRC2 (wtPRC2) complex (Q15022 whole entry partner): as the sequence (Q15022 whole entry partner) above
Sequence of wild type PRC2 (wtPRC2) complex (O75530 whole entry partner): as the sequence (O75530 whole entry partner) above
Sequence of wild type PRC2 (wtPRC2) complex (Q09028 whole entry partner): as the sequence (Q09028 whole entry partner) above
Sequence of wild type PRC2 (wtPRC2) complex (Q6ZN18 whole entry partner): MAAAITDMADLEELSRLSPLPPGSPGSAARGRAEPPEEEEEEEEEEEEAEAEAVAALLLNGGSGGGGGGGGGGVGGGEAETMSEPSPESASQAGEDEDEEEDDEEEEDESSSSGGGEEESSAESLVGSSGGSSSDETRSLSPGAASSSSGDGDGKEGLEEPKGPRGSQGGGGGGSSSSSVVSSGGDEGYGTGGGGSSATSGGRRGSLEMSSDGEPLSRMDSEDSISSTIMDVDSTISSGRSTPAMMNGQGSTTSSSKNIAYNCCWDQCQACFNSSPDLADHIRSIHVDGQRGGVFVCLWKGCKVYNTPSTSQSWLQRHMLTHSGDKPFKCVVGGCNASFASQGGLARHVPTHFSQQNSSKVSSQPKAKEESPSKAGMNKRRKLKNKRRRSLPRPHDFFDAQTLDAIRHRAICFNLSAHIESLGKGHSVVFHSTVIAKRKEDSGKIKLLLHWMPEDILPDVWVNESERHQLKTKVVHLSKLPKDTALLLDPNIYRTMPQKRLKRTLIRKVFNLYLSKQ

The IC50 is the point on the concentration scale where inhibition reaches its midpoint. Read a high IC50 as weaker potency. “2-methoxyethyl (2-((((1,4-trans)-4-((8-chloro-1,7-naphthyridin-2-yl)amino)cyclohexyl)methyl)amino)pyrimidin-5-yl)carbamate [Compound C16]”: the half-maximal inhibitory concentration (IC50) came to 0.015 µM in test [1] and 0.027 µM against EZH2.
Consider `CC(C(=O)N(C)C1COC1)c1cnc(NC[C@H]2CC[C@H](Nc3ccc4ccnc(Cl)c4n3)CC2)nc1` (mixture of isomers) [Compound C55, 2-(2-((((1,4-trans)-4-((8-chloro-1,7-naphthyridin-2-yl)amino)cyclohexyl)methyl)amino)pyrimidin-5-yl)-N-methyl-N-(oxetan-3-yl)propanamide], for which the IC50 was found to be 0.054 µM in test [1] and 0.002 µM at EZH2.
With `CC(C(=O)N1CC(O)C1)c1cnc(NC[C@H]2CC[C@H](Nc3ccc4ccnc(Cl)c4n3)CC2)nc1` (mixture of isomers) [Compound C69, 2-(2-((((1,4-trans)-4-((8-chloro-1,7-naphthyridin-2-yl)amino)cyclohexyl)methyl)amino)pyrimidin-5-yl)-1-(3-hydroxyazetidin-1-yl)propan-1-one], the results for the concentration for half-maximal inhibition (IC50) (in test [1]; against EZH2) were 0.035 µM and 0.136 µM, respectively.
Consider `COc1nccc2ccc(N[C@H]3CC[C@H](CNc4ncc(NC(=O)C5CNC5)cn4)CC3)nc12` [Compound C2, N-(2-((((1,4-trans)-4-((8-methoxy-1,7-naphthyridin-2-yl)amino)cyclohexyl)methyl)amino)pyrimidin-5-yl)azetidine-3-carboxamide], for which the 50% inhibitory concentration (IC50) in test [1] was 0.087 µM; against EZH2 it was 0.783 µM.
`COc1nccc2ccc(N[C@H]3CC[C@H](CNc4ncc(NC(=O)C5CN(C)C5)cn4)CC3)nc12` [Compound C3, N-(2-((((1,4-trans)-4-((8-methoxy-1,7-naphthyridin-2-yl)amino)cyclohexyl)methyl)amino)pyrimidin-5-yl)-1-methylazetidine-3-carboxamide]: the half-inhibitory concentration (IC50) in test [1] was 0.054 µM; at EZH2, 0.025 µM.
Consider `COc1nccc2ccc(N[C@H]3CC[C@H](CNc4ncc(C#N)cn4)CC3)nc12` [Compound C4, 2-((((1,4-trans)-4-((8-methoxy-1,7-naphthyridin-2-yl)amino)cyclohexyl)methyl)amino)pyrimidine-5-carbonitrile], for which the IC50 in test [1] was determined as 0.046 µM; against EZH2, 0.031 µM.
On to `COc1nccc2ccc(N[C@H]3CC[C@H](CNc4ncc(C(N)=O)cn4)CC3)nc12` [Compound C5, 2-((((1,4-trans)-4-((8-methoxy-1,7-naphthyridin-2-yl)amino)cyclohexyl)methyl)amino)pyrimidine-5-carboxamide], for which the IC50 amounted to 0.063 µM in test [1] and 0.062 µM on EZH2.
For `COc1nccc2ccc(N[C@H]3CC[C@H](CNc4ncc(NC(=O)CO)cn4)CC3)nc12` [Compound C7, 2-hydroxy-N-(2-((((1,4-trans)-4-((8-methoxy-1,7-naphthyridin-2-yl)amino)cyclohexyl)methyl)amino)pyrimidin-5-yl)acetamide], in that order: 0.111 µM and 0.131 µM.
The like results for `COc1nccc2ccc(N[C@H]3CC[C@H](CNc4ncc(C(=O)NCC(C)O)cn4)CC3)nc12` (stereo partly drawn) [Compound C9, N-(2-hydroxypropyl)-2-((((1,4-trans)-4-((8-methoxy-1,7-naphthyridin-2-yl)amino)cyclohexyl)methyl)amino)pyrimidine-5-carboxamide] were, in that order, 0.105 µM and 0.061 µM.
For `COc1nccc2ccc(N[C@H]3CC[C@H](CNc4ncc(C(=O)N5CCOCC5)cn4)CC3)nc12` [Compound C10, (2-((((1,4-trans)-4-((8-methoxy-1,7-naphthyridin-2-yl)amino)cyclohexyl)methyl)amino)pyrimidin-5-yl)(morpholino)methanone], in that order: 0.194 µM and 0.191 µM.
Regarding `COc1nccc2ccc(N[C@H]3CC[C@H](CNc4ncc(C(=O)N5CCN(C)CC5)cn4)CC3)nc12` [Compound C11, (2-((((1,4-trans)-4-((8-methoxy-1,7-naphthyridin-2-yl)amino)cyclohexyl)methyl)amino)pyrimidin-5-yl)(4-methylpiperazin-1-yl)methanone], the half-inhibitory concentration (IC50) was 0.12 µM in test [1] and 0.029 µM at EZH2.
For `COc1nccc2ccc(N[C@H]3CC[C@H](CNc4ncc(-c5ncn[nH]5)cn4)CC3)nc12` [Compound C12, N-((1,4-trans)-4-(((5-(1H-1,2,4-triazol-5-yl)pyrimidin-2-yl)amino)methyl)cyclohexyl)-8-methoxy-1,7-naphthyridin-2-amine], in that order: 0.075 µM and 0.052 µM.
Take `COc1nccc2ccc(N[C@H]3CC[C@H](CNc4ncc(CC(=O)NC5COC5)cn4)CC3)nc12` [Compound C13, 2-(2-((((1,4-trans)-4-((8-methoxy-1,7-naphthyridin-2-yl)amino)cyclohexyl)methyl)amino)pyrimidin-5-yl)-N-(oxetan-3-yl)acetamide]: the IC50 in test [1] was determined as 0.042 µM; against EZH2, 0.013 µM.
As for `Nc1cnc(NC[C@H]2CC[C@H](Nc3ccc4ccnc(Cl)c4n3)CC2)nc1` [Compound C14, N^2-(((1,4-trans)-4-((8-chloro-1,7-naphthyridin-2-yl)amino)cyclohexyl)methyl)pyrimidine-2,5-diamine], the concentration for half-maximal inhibition (IC50) is 0.116 µM in test [1] and 0.056 µM at EZH2.
Turning to `O=C(Nc1cnc(NC[C@H]2CC[C@H](Nc3ccc4ccnc(Cl)c4n3)CC2)nc1)OCCO` [Compound C17, 2-hydroxyethyl (2-((((1,4-trans)-4-((8-chloro-1,7-naphthyridin-2-yl)amino)cyclohexyl)methyl)amino)pyrimidin-5-yl)carbamate], the results for the IC50 (in test [1]; against EZH2) were 0.088 µM and 0.01 µM, respectively.
For `O=C(Nc1cnc(NC[C@H]2CC[C@H](Nc3ccc4ccnc(Cl)c4n3)CC2)nc1)OCC1COC1` [Compound C18, Oxetan-3-ylmethyl (2-((((1,4-trans)-4-((8-chloro-1,7-naphthyridin-2-yl)amino)cyclohexyl)methyl)amino)pyrimidin-5-yl)carbamate], in that order: 0.028 µM and 0.039 µM.
Regarding `O=C(CO)Nc1cnc(NC[C@H]2CC[C@H](Nc3ccc4ccnc(Cl)c4n3)CC2)nc1` [Compound C19, N-(2-((((1,4-trans)-4-((8-chloro-1,7-naphthyridin-2-yl)amino)cyclohexyl)methyl)amino)pyrimidin-5-yl)-2-hydroxyacetamide], the 50% inhibitory concentration (IC50) against EZH2 is 0.069 µM.
`O=C(CCC(=O)N1CCOCC1)Nc1cnc(NC[C@H]2CC[C@H](Nc3ccc4ccnc(Cl)c4n3)CC2)nc1` [Compound C20, N-(2-((((1,4-trans)-4-((8-chloro-1,7-naphthyridin-2-yl)amino)cyclohexyl)methyl)amino)pyrimidin-5-yl)-4-morpholino-4-oxobutanamide]: the concentration for half-maximal inhibition (IC50) in test [1] came to 0.068 µM; on EZH2, 0.127 µM.
On to `N#Cc1cnc(NC[C@H]2CC[C@H](Nc3ccc4ccnc(Cl)c4n3)CC2)nc1` [Compound C21, 2-((((1,4-trans)-4-((8-chloro-1,7-naphthyridin-2-yl)amino)cyclohexyl)methyl)amino)pyrimidine-5-carbonitrile], for which the IC50 (in test [1]; on EZH2) was 0.04 µM throughout.
With `O=C(c1cnc(NC[C@H]2CC[C@H](Nc3ccc4ccnc(Cl)c4n3)CC2)nc1)N1CCOCC1` [Compound C22, (2-((((1,4-trans)-4-((8-chloro-1,7-naphthyridin-2-yl)amino)cyclohexyl)methyl)amino)pyrimidin-5-yl)(morpholino)methanone], the half-inhibitory concentration (IC50) in test [1] came to 0.046 µM; at EZH2, 0.188 µM.
On to `O=C(c1cnc(NC[C@H]2CC[C@H](Nc3ccc4ccnc(Cl)c4n3)CC2)nc1)N1CCNCC1` [Compound C24, (2-((((1,4-trans)-4-((8-chloro-1,7-naphthyridin-2-yl)amino)cyclohexyl)methyl)amino)pyrimidin-5-yl)(piperazin-1-yl)methanone], for which the IC50 in test [1] came to 0.112 µM; at EZH2, 0.296 µM.
Regarding `O=C(NC1COC1)c1cnc(NC[C@H]2CC[C@H](Nc3ccc4ccnc(Cl)c4n3)CC2)nc1` [Compound C25, 2-((((1,4-trans)-4-((8-chloro-1,7-naphthyridin-2-yl)amino)cyclohexyl)methyl)amino)-N-(oxetan-3-yl)pyrimidine-5-carboxamide], the IC50 came to 0.023 µM in test [1] and 0.285 µM against EZH2.
`Clc1nccc2ccc(NC3CCC(CNc4ncc(COC5COC5)cn4)CC3)nc12` (stereo not drawn) [Compound C35, 8-chloro-N-((1,4-trans)-4-(((5-((oxetan-3-yloxy)methyl)pyrimidin-2-yl)amino)methyl)cyclohexyl)-1,7-naphthyridin-2-amine] returned a half-inhibitory concentration (IC50) on EZH2 of 0.024 µM.
